Experimental data: patent publication US6350780B1, “Methods and compositions for drug delivery” (Allergan Sales, Inc., priority 1995, dated 2002)

Columns and labels:
[1] = tested on: cultured human non-pigmented ciliary epithelial (NPE) cells; assay: regulatory volume decrease (RVD) following hyposmotic swelling of cultured NPE cells; assay type: cell-based; settings: 20 µM BAPTA-AM loaded 30 minutes in isosmotic (290 mOsm) solution, then hyposmotic (198 mOsm) solution; cell volume by Coulter Counter; FIG. 1
Description: In this example, NPE cells were loaded in an isosmotic (290 mOsm) solution containing 20 µM BAPTA-AM for 30 minutes prior to suspension in a hyposmotoic (198 mOsm) solution. Control cells were subjected to the same hyposmotic solution but without prior loading with BAPTA. Changes in cell volume were measured using a Coulter Counter interfaced to a Coulter Channelyzer. It is noted that, following osmotic swelling, control cells regulate towards their original isosmotic volume while BAPTA-loaded cells remain swollen. The above findings indicate that intracellular BAPTA via chelation of Ca^2+i inhibits solute and osmotically obliged H2O efflux. Because the Ca^2+i-dependent ion flux pathways activated following osmotic cell swelling of NPE cells are involved in aqueous secretion, BAPTA will inhibit aqueous humor formation and, thus, lower IOP.

[2] = tested on: eye of a mammal suffering high intraocular pressure; assay: intraocular pressure after instillation into the eye of a mammal suffering high intraocular pressure; assay type: in vivo; settings: topical instillation in ophthalmically acceptable carrier; mammal with high intraocular pressure
Description: This compound comprises the calcium chelator BAPTA blocked with three acetoxymethyl ester (AM) moieties, and containing a single N-linked pACE group in place. The compound is dissolved in an ophthalmically acceptable carrier for topical delivery to the eye. As indicated above, such prodrug-pACE compounds are specifically targeted to cilliary epithelial and retinal cells, without substiantially affecting other cell types. In the above formulation, based on Formula B, the compound will bind acetylcholine receptors and cell surface acetylcholinesterase without being hydrolyzed thereby. The electronically neutral prodrug is then transported or permitted to penetrate the cell membrane, where cytoplasmic esterases convert the prodrug-pACE into the tetraacetic acid form of BAPTA capable of modulating the intracellular concentration of free Ca^++, thereby providing a neuroprotective function.
The compound is instilled into the eye of a mammal suffering high intraocular pressure. The prodrug-pACE compound passes through the cornea and the drug is concentrated within ciliary epithelial and retinal ganglion cells.

Compound | effect on regulatory volume decrease (RVD) [1] | intraocular pressure following treatment versus prior to treatment [2]
CC(=O)OCOC(=O)CN(CC(=O)OCOC(C)=O)c1ccccc1OCCOc1ccccc1N(CC(=O)OCOC(C)=O)CC(=O)OCOC(C)=O [BAPTA-AM, acetoxymethyl ester of BAPTA] | totally depress | –
CC(=O)OCOC(=O)CN(CC(=O)OCOC(C)=O)c1ccccc1OCCOc1ccccc1N(CC(=O)OCOC(C)=O)CC(=O)OCOC(=O)CCC(=O)C(C)(C)C [Example 2] | – | significantly lower
